{"source": "ChEMBL document CHEMBL5543162", "about": "“Discovery of a Novel Orally Bioavailable FLT3-PROTAC Degrader for Efficient Treatment of Acute Myeloid Leukemia and Overcoming Resistance of FLT3 Inhibitors” (J Med Chem, 2024)", "key": {"[1]": {"tested_on": "Protein cereblon/Receptor-type tyrosine-protein kinase FLT3 (Homo sapiens), P36888+Q96SW2 [UNDEFINED MUTATION]", "sequence (P36888 whole entry, looked up, change not shown)": "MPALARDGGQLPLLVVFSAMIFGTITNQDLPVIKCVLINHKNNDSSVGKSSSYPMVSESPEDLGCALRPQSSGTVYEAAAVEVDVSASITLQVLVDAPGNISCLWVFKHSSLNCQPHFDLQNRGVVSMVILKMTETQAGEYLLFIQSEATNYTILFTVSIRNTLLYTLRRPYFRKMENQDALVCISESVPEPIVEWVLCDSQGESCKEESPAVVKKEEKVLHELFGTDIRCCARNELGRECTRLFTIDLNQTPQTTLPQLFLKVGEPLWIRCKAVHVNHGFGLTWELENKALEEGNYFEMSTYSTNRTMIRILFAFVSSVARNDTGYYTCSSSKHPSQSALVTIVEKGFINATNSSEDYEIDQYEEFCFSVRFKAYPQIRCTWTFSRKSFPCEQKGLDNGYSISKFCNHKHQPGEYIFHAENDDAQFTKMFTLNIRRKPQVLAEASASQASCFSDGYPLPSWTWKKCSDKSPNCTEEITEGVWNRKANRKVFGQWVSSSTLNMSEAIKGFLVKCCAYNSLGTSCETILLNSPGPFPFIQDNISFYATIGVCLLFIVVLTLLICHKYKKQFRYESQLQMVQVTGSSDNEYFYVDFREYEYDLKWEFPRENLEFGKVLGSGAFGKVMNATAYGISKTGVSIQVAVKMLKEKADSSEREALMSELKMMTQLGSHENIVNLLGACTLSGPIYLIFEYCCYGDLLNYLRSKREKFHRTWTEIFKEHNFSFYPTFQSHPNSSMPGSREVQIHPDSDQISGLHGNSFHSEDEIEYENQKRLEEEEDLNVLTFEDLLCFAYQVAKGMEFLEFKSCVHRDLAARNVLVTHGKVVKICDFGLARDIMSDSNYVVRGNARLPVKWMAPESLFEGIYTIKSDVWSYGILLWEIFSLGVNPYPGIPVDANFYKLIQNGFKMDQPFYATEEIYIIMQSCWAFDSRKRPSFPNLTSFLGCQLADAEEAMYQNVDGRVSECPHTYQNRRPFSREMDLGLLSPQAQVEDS", "sequence (Q96SW2 whole entry, looked up, change not shown)": "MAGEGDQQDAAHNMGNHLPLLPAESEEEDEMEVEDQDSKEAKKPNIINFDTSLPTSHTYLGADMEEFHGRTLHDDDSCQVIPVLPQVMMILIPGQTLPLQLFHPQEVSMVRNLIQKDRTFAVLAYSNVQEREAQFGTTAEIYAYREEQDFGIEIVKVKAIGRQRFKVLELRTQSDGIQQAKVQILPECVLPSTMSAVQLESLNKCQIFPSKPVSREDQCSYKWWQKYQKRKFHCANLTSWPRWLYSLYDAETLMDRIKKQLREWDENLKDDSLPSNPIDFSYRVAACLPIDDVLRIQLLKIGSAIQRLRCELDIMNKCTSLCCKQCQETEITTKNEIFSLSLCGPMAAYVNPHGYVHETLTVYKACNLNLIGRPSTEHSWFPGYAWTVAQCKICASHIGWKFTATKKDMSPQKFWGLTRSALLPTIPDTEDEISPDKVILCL", "test": "PROTAC activity at CRBN/FLT3-ITD mutant in membrane of human MV4-11 cells assessed as protein degradation at 100 nM measured after 24 hrs by immunofluorescence analysis"}, "[2]": {"tested_on": "Protein cereblon/Receptor-type tyrosine-protein kinase FLT3 (Homo sapiens), P36888+Q96SW2 [UNDEFINED MUTATION]", "test": "PROTAC activity at CRBN/FLT3-ITD mutant in human MV4-11 cells assessed as decrease in ERK level at 20 nM by Western blot analysis", "format": "cell-based", "details": "time <= 12.0 hrs, TDE = time-dependent effect"}, "MV4-11 [3]": {"tested_on": "MV4-11", "test": "Induction of apoptosis in human MV4-11 cells incubated for 24 hrs by Annexin V-FITC/PI staining based flow cytometry", "format": "functional, cell-based", "details": "dose 25-100 nM"}, "[4]": {"test": "AUC (0 to t) in Sprague-Dawley rat at 1 mg/kg, iv measured for 24 hrs by LC-MS/MS analysis", "format": "ADME, organism-based", "details": "in vivo"}, "[5]": {"test": "Half life in Sprague-Dawley rat at 1 mg/kg, iv measured for 24 hrs by LC-MS/MS analysis", "format": "ADME, organism-based", "details": "in vivo"}, "MV4-11 [6]": {"tested_on": "MV4-11", "test": "Antitumor activity against human MV4-11 cells xenografted in nu/nu mouse at 1.25 mg/kg, po administered daily for 2 weeks relative to control", "format": "functional", "details": "MV4-11, 336 h, read-out: TGI"}, "MV4-11 [7]": {"tested_on": "MV4-11", "test": "Antitumor activity against human MV4-11 cells xenografted in nu/nu mouse at 2.5 mg/kg, po administered daily for 2 weeks relative to control", "format": "functional", "details": "MV4-11, 336 h, read-out: TGI"}, "Mus musculus": {"tested_on": "Mus musculus", "test": "Anti-leukemic activity in NSG mouse xenografted with human MV4-11 cells expressing luciferase assessed as decrease in CD45+/CD33+ cells proportion in spleen at 1.25 to 10 mg/kg, po administered daily for 3 weeks", "format": "functional, organism-based", "details": "dose 1.25-10 mg/kg"}, "[8]": {"test": "Stability in mouse liver microsomes assessed as half life", "format": "ADME, Microsome"}, "[9]": {"test": "Stability in rat liver microsomes assessed as intrinsic clearance", "format": "ADME, Microsome", "details": "read-out: CLH"}, "[10]": {"test": "Stability in mouse liver microsomes assessed as hepatic clearance", "format": "ADME, Microsome"}}, "note": "Activity calls are given as the source filed them. The rule behind the calls is not given here.", "data": [{"molecule": "Cc1c(NC(=O)CN2CCN(CC3CCN(c4ccc5c(c4)C(=O)N(C4CCC(=O)NC4=O)C5=O)CC3)CC2)c[nH]c1/C=C1\\C(=O)Nc2ccc(F)cc21", "note": "(stereo unspecified)", "values": [{"measurement": "Activity", "setting": "[1]", "value": "Active"}, {"measurement": "Activity", "setting": "[2]", "value": "Tde"}, {"measurement": "Activity", "setting": "MV4-11 [3]", "value": "Dose-Dependent Effect"}, {"measurement": "AUC(0-t) at 24 h", "setting": "[4]", "value": 2770, "unit": "ng·h/mL"}, {"measurement": "half-life", "setting": "[5]", "value": 6.5, "unit": "h"}, {"measurement": "inhibition in vivo at 1.25 mg/kg", "setting": "MV4-11 [6]", "value": 51.4, "unit": "%"}, {"measurement": "inhibition in vivo at 2.5 mg/kg", "setting": "MV4-11 [7]", "value": 84.4, "unit": "%"}, {"measurement": "Activity", "setting": "Mus musculus", "value": "Active"}, {"measurement": "half-life", "setting": "[8]", "value": 0.982, "unit": "h"}, {"measurement": "CLint scaled", "setting": "[9]", "value": 27, "unit": "mL/min/kg"}, {"measurement": "CLhep predicted", "setting": "[10]", "value": 45.7, "unit": "mL/min/kg"}]}]}
